US20240216387A1, “COMPOSITION FOR PREVENTING OR TREATING MUSCULAR DISEASE, COMPRISING OXICAM-BASED COMPOUND” (ANIMUSCURE INC., priority 2021, published 2024)

Columns and labels:
relatively young mice = assay: Grip strength and motor performance in relatively young mice (FIG. 15); type: in vivo
Description: On day 21 after inducing CTX-injury, a grip strength test for measuring the muscle strength of the meloxicam-administered group and the control group and an experiment for confirming motor performance were conducted. The grip strength test was performed by using a mouse grip strength tester manufactured by BIOSEB.

C2Cl2 cells = assay: Myoblast differentiation by meloxicam concentration (MHC immunofluorescence and Western blot); type: cell-based, mice
Description: The C2Cl2 cells were cultured in a general cell culture medium and a differentiation medium, respectively. DMEM supplemented with 10% fetal bovine serum was used as a normal cell culture medium (i.e., a growth medium (GM)), and DMEM containing 2% horse serum was used as a differentiation medium (DM). […] After differentiation, the cells were observed under a microscope, and the cells were disrupted and subjected to Western blot analysis using myogenin and MHC antibodies, which are differentiation markers. The C2Cl2 cells were washed with 1×PBS, fixed with 4% paraformaldehyde at room temperature, and then allowed to react at room temperature after adding a permeabilization buffer. The reaction was performed with PBST (blocking buffer) containing 5% goat serum and PBS containing 0.05% Tween 20 to inhibit non-specific antibody binding. After adding a primary antibody against myosin heavy chain (MHC), the resulting mixture was allowed to react at room temperature. A secondary antibody diluted 1:5000 in a blocking buffer was added and allowed to react at room temperature, and after applying a mounting solution (40% glycerol in DW) and fixing, images were taken under a fluorescence microscope to analyze the results.

4-month-old normal mice = assay: Body weight, intake, grip strength, treadmill test and muscle mass in 4-month-old normal mice upon long-term administration; type: in vivo; conditions: meloxicam for 2 months
Description: In the treadmill test, measurement was performed by using a treadmill device for mice manufactured by Columbus Instruments. Measurements started at a 10% slope and 8 m/min, which was increased 1 m/min every 2 minutes, and continued until the mouse became tired.

human muscle stem cells = assay: Human muscle stem cell differentiation (MHC immunostaining, myotube diameter); type: cell-based; conditions: muscle stem cells from subject, meloxicam 1 μM, 4 days
Description: In addition, human muscle stem […] human skeletal muscle cells (Standard Donors), Cat NO: SK-1111) isolated from the rectus abdominis […] were purchased from MyoSite and used. Human muscle stem […] human skeletal muscle cells (Standard Donors), Cat NO: SK-1111) isolated from the rectus abdominis […] were purchased from MyoSite and used. Human muscle stem cells were seeded in a cell culture medium and cultured for 24 hours. […] The degree of differentiation into muscle fibers was measured through MHC immunostaining, which is a muscle fiber marker. Differentiation was analyzed by muscle fiber diameter.

24-month-old mice = assay: Muscle mass, muscle type and motor performance in aging mice upon long-term administration; type: in vivo

## Cc1cnc(NC(=O)C2=C(O)c3ccccc3S(=O)(=O)N2C)s1 [meloxicam]
Relatively young mice
  motor performance increase: up to 72.3%
Relatively young mice; day 21 after inducing CTX-injury as printed
  muscle strength increase (grip strength test) compared to the control group: about 21.9%
C2Cl2 cells; by meloxicam concentration (1-10,000 nM), FIG. 3
  MHC expression level (Western blot): increased
C2Cl2 cells; high concentration of meloxicam (1-10,000 nM tested), differentiation for 3 days, FIG. 2
  MHC observed in myoblasts (fluorescence microscope): clearly observed
4-month-old normal mice; FIG. 16A
  body weight change compared with the non-administration group: no significant change
4-month-old normal mice; FIG. 16B
  change in intake: no change
4-month-old normal mice; FIG. 17A
  muscle strength (grip strength test): improved
4-month-old normal mice; compared to the non-administration group, FIG. 17A
  exercise duration (treadmill test): improved
Human muscle stem cells; FIG. 4
  myotube diameter: increased
Human muscle stem cells; FIG. 5
  MHC expression: increased
  myotube diameter: increased
24-month-old mice; 7-month-old mice
  effect of increasing motor performance: confirmed
24-month-old mice; 24-month-old mice, meloxicam for 4 months, FIG. 12
  muscle mass in the hindlimb muscles and EDL muscle: increased
24-month-old mice; aged mice, FIG. 14
  motor performance increase (rotarod apparatus) compared to the control group: more than 50%
